In publication PMC10590756, “Glutarate regulates T cell metabolism and anti-tumour immunity” (Nature Metabolism, 2023):

How the values were obtained:
PDHc = target: T1, PDHc (Homo sapiens, UniProt P10515); assay: PDHc activity assay on CD8^+ T cell lysates; type: cell-based; conditions: 500 µM DEG
T1 construct: we performed a direct enzymatic activity assay of the PDHc on CD8^+ T cell lysates; endogenous in cells; host or cells: human CD8+ T cells, lysate (activity kit MAK183, Sigma-Aldrich)
Method: PDHc activity was determined using a PDHc Activity Assay Kit (catalogue no. MAK183, Sigma-Aldrich). A total of 1 × 10^6 cells were used per reaction and the assay was performed according to the manufacturer’s instructions. Activity was normalized to total protein concentration. Data were acquired on a FLUOstar Omega (BMG Labtech).

murine CD8^+ T cells = assay: Cell growth and viability of murine CD8^+ T cells; type: cell-based; conditions: 7 days
Method: After 7 days of culture, we assessed the abundance of CD62L^hiCD44^hi (TCM-like) T cells by flow cytometry (Fig. 1a). We additionally determined the effect of each compound on cell growth and viability (Fig. 1b and Extended Data Fig. 1a).
B16F10 cells were originally purchased from ATCC (catalogue no. CRL-6475) and genetically modified to express OVA, enhanced green fluorescent protein (GFP) and neomycin phosphotransferase. The resulting OVA expression B16F10-OVA cells were cultured in DMEM (catalogue no. 11995065, Thermo Fisher Scientific) containing 0.75 mg ml^−1 G418 sulphate (catalogue no. 10131027, Thermo Fisher Scientific). HEK 293T cells were purchased from Takara Bio (catalogue no. 632180) and cultured in DMEM. SKOV3 was purchased from ATCC (catalogue no. HTB-77) and cultured in McCoy’s 5A (Modified) Medium (catalogue no. 16600082, Thermo Fisher Scientific). Raji-GFP-Luc cells were purchased from Biocytogen (catalogue no. B-HCL-010) and cultured in Roswell Park Memorial Institute (RPMI) 1640 (catalogue no. 21875, Thermo Fisher Scientific). Jurkat cells were purchased from ATCC (catalogue no. TIB-152) and cultured in RPMI 1640. RAW 264.7 cells were purchased from ATCC (catalogue no. TIB-71) and cultured in RPMI 1640. HeLa cells were a gift from P. Lehner (University of Cambridge) and were authenticated using short tandem repeat profiling (Eurofins Genomics). HeLa cells were cultured in DMEM. MEFs were isolated from macerated embryonic day (E) 12.5–13.5 embryos. A whole litter of embryos without sex selection were used. Stable transfection with SV40 large T antigen passage 3 was used for immortalization. Cells were subcultured over 17 more passages and maintained in DMEM[63]. All media was supplemented with 10% FCS (catalogue no. 10270106, Gibco), 100 U ml^−1 penicillin and 100 µg ml^−1 streptomycin (catalogue no. P4333, Sigma-Aldrich). […] Cell number and viability was determined using the ADAM-MC Automated Cell Counter (NanoEntek), CellDrop Automated Cell Counter (DeNovix) or TC20 Automated Cell Counter (Bio-Rad Laboratories). […]

human CD8^+ T cells [1] = assay: qPCR gene expression in CD8^+ T cells; type: cell-based; conditions: 500 µM DEG, 7 days
Method: Total RNA was extracted from isolated CD8^+ T cells (RNeasy Kit, QIAGEN); 300 ng of RNA were used for complementary DNA synthesis (First-Strand cDNA Synthesis Kit, Invitrogen). Quantitative PCR with reverse transcription (RT–qPCR) was performed with SYBR green (Roche) in a StepOnePlus system (Applied Biosystems). All kits were used according to the manufacturer’s instructions. Samples were run in technical duplicates. Primers were designed with NCBI primer blast and are listed in Supplementary Table 5.

human CD8^+ T cells [2] = assay: Glucose uptake assay; type: cell-based; conditions: 500 µM DEG, acute and chronic
Method: Glucose uptake was determined using a Glucose Uptake Assay Kit (catalogue no. J1341, Promega Corporation). The assay was performed according to the manufacturer’s instructions. Data were acquired on the FLUOstar Omega.

CD8^+ T cells = assay: Acetyl-CoA measurement; type: cell-based, human; conditions: 500 µM DEG, 30 min or 7 days
Method: Acetyl-CoA levels were determined using an acetyl-CoA assay kit (catalogue no. MAK039, Sigma-Aldrich). After culture, 2 × 10^6 cells per condition were collected, washed twice with ice-cold PBS and resuspended in 500 µl of the assay buffer. Following deproteinization by adding 2 µl 1M perchloric acid, samples were sonicated and the assay was performed according to the manufacturer’s instructions. Data were acquired on the FLUOstar Omega.

[3] = target: T2, PDHE2 lipoate in human CD8^+ T cells (Homo sapiens, UniProt P10515); assay: PDHE2 lipoate western blot; type: cell-based; conditions: 500 µM DEG, 24 h
T2 construct: We treated human CD8^+ T cells with DEG and observed reduced PDHE2 lipoate level; endogenous in cells; host or cells: primary human CD8+ T cells
Method: Lipoic acid western blotting was performed as above with the following alterations: blocking buffer and secondary antibody buffer (5% milk plus 1% fatty acid free bovine serum albumin (BSA) (catalogue no. BP9704100, Thermo Fisher Scientific) prepared in PBS plus 0.05% Tween-20); and primary antibody buffer (2% fatty acid free BSA prepared in PBS plus 0.05% Tween-20). Lipoic acid antibody was used at a concentration of 1:2,000 (catalogue no. 437695, Sigma-Aldrich). Data were analysed using the iBright Analysis Software v.4.0.1 or ImageJ.

Compound: CCOC(=O)CCCC(=O)OCC [DEG, Diethyl glutarate]
- PDHc activity, acute exposure (PDHc; 30 min): decreased PDHc activity
- PDHc activity, chronic exposure (PDHc; seven day): decreased PDHc activity
- cell viability or proliferation (murine CD8^+ T cells; 400 µM): no negative effects
- cell growth (murine CD8^+ T cells; even at 1-mM concentrations): did not display any negative effects
- carnitine palmitoyltransferase 1A (CPT1A) gene expression (human CD8^+ T cells [1]): increased levels
- expression of HIF target genes (human CD8^+ T cells [1]): increased expression
- fatty acid binding protein (FABP) gene expression (human CD8^+ T cells [1]): increased levels
- fatty acid synthase (FASN) gene expression (human CD8^+ T cells [1]): increased levels
- mRNA levels of PDHK1 (human CD8^+ T cells [1]): increased
- rate of glucose uptake (human CD8^+ T cells [2]): no changes
- acetyl-CoA levels (CD8^+ T cells): not lower
- PDHE2 lipoate level [3]: reduced
